Source: patent US20240383915A1, “OXAZEPINE COMPOUNDS AND USES THEREOF IN THE TREATMENT OF CANCER” (Genentech, Inc., priority 2021, published 2024)

Assays:
PC-9 cells = assay: PC9 proliferation assay; format: cell-based, human; conditions: Homo sapiens, PC-9, PC9; read-out: PC9 Prolif IC50 (G12V)
KRas(G12V) = KRas(G12V) (Homo sapiens (Human), UniProt P01116, G12V); assay: KRas(G12V) GDP HTRF (BODIPY-GDP exchange TR-FRET); format: biochemical
KRas = KRas (Homo sapiens (Human), UniProt P01116); assay: KRas GDP HTRF (BODIPY-GDP exchange TR-FRET); format: biochemical
Method in brief: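 Inhibition of SOS1-mediated exchange of BODIPY-GDP on KRAS G12D, started with 3 nM recombinant human SOS1 and 300 nM BODIPY-GDP and read after 60 min. TR-FRET excitation 337 nm, ratio 520/490 nm ×10,000. IC50 from 4-parameter Hill fit of normalized data.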

SW480 cells = assay: SW480 proliferation assay; format: cell-based; conditions: Homo sapiens, SW480, SW480; read-out: SW480 Prolif IC50 (G12V)

Sequence of KRas(G12V) (P01116-2 other isoform, or with tags, fused parts or gaps G12V): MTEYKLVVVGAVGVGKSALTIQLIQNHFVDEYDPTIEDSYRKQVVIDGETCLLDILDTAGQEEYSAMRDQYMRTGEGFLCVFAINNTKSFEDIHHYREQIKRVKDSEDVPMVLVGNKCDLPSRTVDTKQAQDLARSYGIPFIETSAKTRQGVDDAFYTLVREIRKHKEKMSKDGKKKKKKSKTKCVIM
Sequence of KRas (P01116-2 other isoform, or with tags, fused parts or gaps): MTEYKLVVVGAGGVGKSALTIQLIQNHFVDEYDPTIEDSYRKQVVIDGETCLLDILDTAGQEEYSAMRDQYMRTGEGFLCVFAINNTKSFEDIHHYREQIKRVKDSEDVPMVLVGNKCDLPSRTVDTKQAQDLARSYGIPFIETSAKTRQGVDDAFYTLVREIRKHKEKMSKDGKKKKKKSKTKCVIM

Row | SMILES | IC50 (PC-9 cells) [nM] | IC50 (KRas(G12V)) [nM] | IC50 (KRas) [nM] | IC50 (SW480 cells) [nM]
1 | Cc1cc(N)nc(-c2c(Cl)c3c4c(nc(OC[C@H]5CC[C@@H]6COCCCN65)nc4c2F)N([C@H](C)c2cccnc2N)CCO3)c1C(F)(F)F (atropisomer, axis not shown; (aR)) [Example 120b, 6-((R)-4-((R)-1-(2-aminopyridin-3-yl)ethyl)-8-chloro-10-fluoro-2-(((7R,9aR)-hexahydro-1H,3H-pyrrolo[2,1-c][1,4]oxazepin-7-yl)methoxy)-5,6-dihydro-4H-[1,4]oxazepino[5,6,7-de]quinazolin-9-yl)-4-methyl-5-(trifluoromethyl)pyridin-2-amine] | 3000 | 0.08 | 0.2 | 20
2 | Cc1cc(N)nc(-c2c(Cl)c3c4c(nc(OC[C@@]56CCCN5C[C@H](F)C6)nc4c2F)N([C@@H]2CCCc4ccnc(N)c42)CCO3)c1C(F)(F)F (atropisomer, axis not shown; (aS)) [Example 65a, (R)-8-((R)-9-(6-amino-4-methyl-3-(trifluoromethyl)pyridin-2-yl)-8-chloro-10-fluoro-2-(((2R,7aS)-2-fluorotetrahydro-1H-pyrrolizin-7a(5H)-yl)methoxy)-5,6-dihydro-4H-[1,4]oxazepino[5,6,7-de]quinazolin-4-yl)-5,6,7,8-tetrahydroisoquinolin-1-amine] | 940 | 0.1 | 0.25 | 2.6
3 | Cc1cc(N)nc(-c2cc3ncnc4c3c(c2Cl)OCCN4Cc2cncnc2N)c1C(F)(F)F [Example 26, 5-((9-(6-amino-4-methyl-3-(trifluoromethyl)pyridin-2-yl)-8-chloro-5,6-dihydro-4H-[1,4]oxazepino[5,6,7-de]quinazolin-4-yl)methyl)pyrimidin-4-amine] | 16000 | 53 | 330 | 9700
4 | Cc1cc(N)c(F)c(-c2c(Cl)c3c4c(nc(OC[C@@]56CCCN5C[C@H](F)C6)nc4c2F)N([C@H](C)c2cccnc2N)CCO3)c1C(F)(F)F (single isomer, unassigned) [Example 73a] | 2300 | 0.11 | 0.27 | 2.6
5 | Cc1cc(N)nc(-c2c(Cl)c3c4c(nc(OCC5(C)CCOCC5)nc4c2F)N([C@H](C)c2cccnc2N)CCO3)c1C(F)(F)F (atropisomer, axis not shown) [Example 144, 6-((R)-4-((R)-1-(2-aminopyridin-3-yl)ethyl)-8-chloro-10-fluoro-2-((4-methyltetrahydro-2H-pyran-4-yl)methoxy)-5,6-dihydro-4H-[1,4]oxazepino[5,6,7-de]quinazolin-9-yl)-4-methyl-5-(trifluoromethyl)pyridin-2-amine] | 6000 | 1.4 | 4.4 | 520
6 | Cc1cc(N)nc(-c2c(Cl)c3c4c(nc(OC[C@@H]5CCN5CC(F)F)nc4c2F)N([C@H](C)c2cncnc2N)CCO3)c1C(F)(F)F (atropisomer, axis not shown) [Example 84a, 5-((R)-1-((R)-9-(6-amino-4-methyl-3-(trifluoromethyl)pyridin-2-yl)-8-chloro-2-(((S)-1-(2,2-difluoroethyl)azetidin-2-yl)methoxy)-10-fluoro-5,6-dihydro-4H-[1,4]oxazepino[5,6,7-de]quinazolin-4-yl)ethyl)pyrimidin-4-amine] | 12000 | 0.14 | 0.389 | 73
7 | Cc1cc(N)nc(-c2c(Cl)c3c4c(nc(OC[C@@]56CCCN5C[C@H](F)C6)nc4c2F)N(C)CCO3)c1C(F)(F)F (single isomer, unassigned) [Example 41a] | 3800 | 1.8 | 11 | 1000
8 | Nc1ncccc1CN1CCOc2c(Cl)c(-c3cccc4c3CCC4)cc3nc(OC[C@@]45CCCN4C[C@H](F)C5)nc1c23 [Example 63, 3-((8-chloro-9-(2,3-dihydro-1H-inden-4-yl)-2-(((2R,7aS)-2-fluorotetrahydro-1H-pyrrolizin-7a(5H)-yl)methoxy)-5,6-dihydro-4H-[1,4]oxazepino[5,6,7-de]quinazolin-4-yl)methyl)pyridin-2-amine] | 4000 | 8.7 | 69 | 3300
9 | Nc1ncccc1CN1CCOc2c(Cl)c(-c3cccc4ccccc34)cc3nc(OC[C@@]45CCCN4C[C@H](F)C5)nc1c23 [Example 62, 3-((8-chloro-2-(((2R,7aS)-2-fluorotetrahydro-1H-pyrrolizin-7a(5H)-yl)methoxy)-9-(naphthalen-1-yl)-5,6-dihydro-4H-[1,4]oxazepino[5,6,7-de]quinazolin-4-yl)methyl)pyridin-2-amine] | 3400 | 12 | 96 | 4900
10 | Cc1cc(N)nc(-c2cc3ncnc4c3c(c2Cl)OCCN4C(c2cccnc2N)C2CC2)c1C(F)(F)F (centres unmarked) [Example 28, 6-(4-((2-aminopyridin-3-yl)(cyclopropyl)methyl)-8-chloro-5,6-dihydro-4H-[1,4]oxazepino[5,6,7-de]quinazolin-9-yl)-4-methyl-5-(trifluoromethyl)pyridin-2-amine] | 17000 | 8.2 | 110 | 7800
11 | Cc1cc(N)nc(-c2c(Cl)c3c4c(nc(OC[C@@H]5C[C@@H](F)CN5C)nc4c2F)N([C@H](C)c2cccnc2N)CCO3)c1C(F)(F)F (atropisomer, axis not shown) [Example 106, 6-((R)-4-((R)-1-(2-aminopyridin-3-yl)ethyl)-8-chloro-10-fluoro-2-(((2S,4R)-4-fluoro-1-methylpyrrolidin-2-yl)methoxy)-5,6-dihydro-4H-[1,4]oxazepino[5,6,7-de]quinazolin-9-yl)-4-methyl-5-(trifluoromethyl)pyridin-2-amine] | 970 | 0.13 | 0.14 | 9.4
12 | Cc1cc(N)nc(-c2cc3nc(OC[C@@H]4C[C@@H](F)CN4C)nc4c3c(c2Cl)OCCN4Cc2cccnc2N)c1C(F)(F)F [Example 49, 6-(4-((2-aminopyridin-3-yl)methyl)-8-chloro-2-(((2S,4R)-4-fluoro-1-methylpyrrolidin-2-yl)methoxy)-5,6-dihydro-4H-[1,4]oxazepino[5,6,7-de]quinazolin-9-yl)-4-methyl-5-(trifluoromethyl)pyridin-2-amine] | 3800 | 0.57 | 3.8 | 1100
13 | Cc1cc(N)nc(-c2c(Cl)c3c4c(nc(OC[C@@]56CCCN5C[C@H](F)C6)nc4c2F)N([C@@H](C)c2nccnc2N)CCO3)c1C(F)(F)F (atropisomer, axis not shown; (aS)) [Example 80, 3-((S)-1-((R)-9-(6-amino-4-methyl-3-(trifluoromethyl)pyridin-2-yl)-8-chloro-10-fluoro-2-(((2R,7aS)-2-fluorotetrahydro-1H-pyrrolizin-7a(5H)-yl)methoxy)-5,6-dihydro-4H-[1,4]oxazepino[5,6,7-de]quinazolin-4-yl)ethyl)pyrazin-2-amine] | 1200 | 8.2 | 23.6 | 940
14 | Cc1cc(N)nc(-c2c(Cl)c3c4c(nc(OC[C@@H]5CCN5CC(F)F)nc4c2F)N([C@H](C)c2cccnc2N)CCO3)c1C(F)(F)F (atropisomer, axis not shown) [Example 109, 6-((R)-4-((R)-1-(2-aminopyridin-3-yl)ethyl)-8-chloro-2-(((S)-1-(2,2-difluoroethyl)azetidin-2-yl)methoxy)-10-fluoro-5,6-dihydro-4H-[1,4]oxazepino[5,6,7-de]quinazolin-9-yl)-4-methyl-5-(trifluoromethyl)pyridin-2-amine] | 13000 | 0.18 | 0.222 | 2.8
15 | Cc1cc(N)nc(-c2cc3ncnc4c3c(c2Cl)OCCN4CCn2ccccc2=O)c1C(F)(F)F [Example 51, 1-(2-(9-(6-amino-4-methyl-3-(trifluoromethyl)pyridin-2-yl)-8-chloro-5,6-dihydro-[1,4]oxazepino[5,6,7-de]quinazolin-4-yl)ethyl)pyridin-2(1H)-one] | 20000 | 9500 | 12000 | 20000
16 | Cc1cc(N)nc(-c2cc3ncnc4c3c(c2Cl)OCCN4[C@H](C)c2cccnc2N)c1C(F)(F)F [Example 5, (R)-6-(4-(1-(2-aminopyridin-3-yl)ethyl)-8-chloro-5,6-dihydro-4H-[1,4]oxazepino[5,6,7-de]quinazolin-9-yl)-4-methyl-5-(trifluoromethyl)pyridin-2-amine] | 9000 | 1.5 | 9.2 | 1500
17 | Cc1cc(N)nc(-c2c(Cl)c3c4c(nc(OC[C@@H]5CC(F)(F)CN5C)nc4c2F)N([C@H](C)c2cccnc2N)CCO3)c1C(F)(F)F (atropisomer, axis not shown) [Example 112, 6-((R)-4-((R)-1-(2-aminopyridin-3-yl)ethyl)-8-chloro-2-(((S)-4,4-difluoro-1-methylpyrrolidin-2-yl)methoxy)-10-fluoro-5,6-dihydro-4H-[1,4]oxazepino[5,6,7-de]quinazolin-9-yl)-4-methyl-5-(trifluoromethyl)pyridin-2-amine] | 4300 | 0.2 | 0.32 | 1.8
